In US11945847B2, “Optogenetic induction of neurodegenerative disease pathologies” (UNIVERSITY OF PITTSBURGH—OF THE COMMONWEALTH SYSTEM OF …, priority 2017, dated 2024):

How the values were obtained:
[1] = Aggregation potential of CRY2 or VVD fusion proteins by protein arrangement; format: cell-based; details: protein arrangement and light stimulation paradigm
Text: FIGS. 9A-9B show the aggregation potential of CRY2 or VVD fusion proteins based on the protein arrangement and light stimulation paradigm combination. Studies indicate that the ability of Cry2 or VVD photoreceptor to stimulate clustering and activation are dependent on the protein arrangement as well as the light stimulation paradigm.

HEK293 cells [2] = assay: Fluorescence recovery after photobleaching (FRAP) of light-induced TDP-43 inclusions; format: cell-based; details: persistent / chronic blue light-induced inclusions
Text: (§1) FIGS. 4A-4E show light-induced aggregation of low-complexity domain proteins. Optogenetic TDP-43 fragments containing the low-complexity domain (LCD) undergo progressive aggregation with light stimulation. […] (FIGS. 4C-4D) Optogenetic LCD fragments also continue to aggregate following brief light pulses, growing in size over time. (FIG. 4E) Persistent blue light stimulation of the TDP-43 LCD forms intracellular aggregates in the cells.
FIGS. 5A-5K show chronic blue light stimulation induces optoTDP43 mislocalization and aggregation that recapitulates pathological hallmarks seen in patient CNS tissue. HEK293 cells expressing optoTDP43-mCh were exposed to 488 nm LED stimulation or darkness for up to 36 hours. […] (FIG. 5E) Fluorescence recovery after photobleaching (FRAP) imaging was performed to assess dynamicity of optoTDP43 structures. […] (FIG. 5F) Detergent-solubility of optoTDP43 structures was assessed by subcellular fractionation to confirm aggregated state of light-induced optoTDP43 granules. […] Human ReN neurons expressing TDP43-mCh or optoTDP43 were exposed to chronic blue light stimulation and viability was simultaneously monitored by longitudinal imaging.

HEK cells [3] = assay: Acute blue light stimulation: pathological aggregate formation and toxicity; format: cell-based
Text: FIG. 10B is a schematic of a screening pipeline to use the induction of neurodegenerative disease pathology to identify therapeutic compounds that rescue toxicity and prevent or remove the formation of the induced neurodegenerative disease pathology.

live cells = assay: Blue light-induced clustering/aggregation of CRY2OLIG constructs visualized in live cells; format: cell-based; details: specific blue light stimulation paradigms
Text: FIGS. 2A-2B describe methods to generate neuropathological aggregate proteins containing an LCD/IDR/Prion-like domain with light using TDP-43 and CRY2OLIG as an example. Various protein arrangements and blue light exposure paradigms were developed to induce protein aggregation of proteins and protein fragments containing LCD/IDR/prion-like domains, promote the mislocalization of nuclear proteins and recapitulate the neuropathology of neurodegenerative diseases. TDP-43 is a predominantly nuclear protein that contains an IDR/IDD/prion-like domain, and is mislocalized and aggregated in ALS, FTD, and some AD patients, as an example. DNA sequences were engineered to generate amino acid sequences that encode for a the CRY2OLIG protein that clusters when exposed to blue light generated a fusion protein either the entire TDP-43 protein (cry2-TDP43-mCh) or just the low complexity domain (LCD/IDD/prion-like domain), which makes TDP-43 aggregation prone (Cry2-274-mCh). As a control, CRY2OLIG alone was used. All constructs were fused to a fluorescent protein called mCherry (mCh) to visualize the proteins in live cells.

HEK cells [4] = assay: Light-induced oligomerization of optogenetic TDP-43 fragments, live confocal microscopy; format: cell-based; details: for oligomerization after a brief pulse of blue light: 8 sec, live confocal microscopy; for oligomerization after a brief pulse of blue light / persistence of oligomers: 10% laser power, 488 nm; for persistence of oligomers: after brief pulse 8 sec
Text: as §1
Beyond protein aggregation, this system creates light-induced pathologies that mimic key pathological features found in patients making it unique compared to overexpression systems. The TDP-43 protein, which contains an LCD, was combined with the CRY2OLIG photoreceptor domain which clusters when exposed to blue light and becomes insoluble and aggregated with persistent light treatment. Fusion proteins of the full length and partial LCD sequence were generated to recapitulate human neurodegenerative disease pathology, including the cytoplasmic mislocalization of nuclear proteins that occurs in patients with ALS and FTD. This system could induce neurodegenerative disease protein aggregates in live HEK cells by exposing them to various blue light stimuli paradigms (FIGS. 4-5). In addition, biochemical hallmarks of ALS, FTD, and AD (FIG. 7) were produced showing that the cell is responding to the light-induced aggregates as observed in patient CNS despite the addition of these tags. […] Employing this DNA arrangement and light stimulation system as an example, cytoplasmic TDP-43 aggregates were obtained that are also ubiquitinylated, cleaved, and hyperphosphorylated as observed in ALS, FTD, and AD patients. TDP-43 pathology is also found in AD as well as Chronic Traumatic Encephalopathy (CTE) thus highlighting the potential disease relevance of this work. In addition, a protein arrangement and light stimulation paradigm was developed to induce the aggregation of α-synuclein (FIG. 6), which is found in the CNS of patients diagnosed with Parkinson's Disease and Lewy Body Dementia. Methods were also developed to induce intracellular aggregation of Tau protein using both the Cry-PHR and LOV photoreceptors (FIG. 7) and persistent blue light stimulation. These tau tangles are pathological hallmarks of AD, FTD and CTE in HEK cells. […] Finally, it was shown that this method can be utilized to seed aggregations, as aggregates of TDP-43 formed using this method recruit endogenous TDP-43 to seed the pathogenic neuropathology (FIGS. 5F, 5G).

Human ReN neurons = assay: Neurotoxicity by automated high-throughput confocal longitudinal imaging; format: cell-based; details: chronic blue light stimulation
Description: (§2) FIGS. 5A-5K show chronic blue light stimulation induces optoTDP43 mislocalization and aggregation that recapitulates pathological hallmarks seen in patient CNS tissue. HEK293 cells expressing optoTDP43-mCh were exposed to 488 nm LED stimulation or darkness for up to 36 hours. […] (FIG. 5E) Fluorescence recovery after photobleaching (FRAP) imaging was performed to assess dynamicity of optoTDP43 structures. […] (FIG. 5F) Detergent-solubility of optoTDP43 structures was assessed by subcellular fractionation to confirm aggregated state of light-induced optoTDP43 granules. […] In addition to increased insolubility of exogenous, full-length optoTDP43 (top band), chronic blue light exposure also results in recruitment of aberrant optoTDP43 cleavage products (middle bands), as well as endogenous full-length TDP-43 and disease-relevant cleavage products (bottom bands), to the detergent-insoluble, urea-soluble fraction of cell lysates as is observed in patient tissue. (FIG. 5G) To confirm direct recruitment of non-optogenetic TDP-43 species to exogenous light-induced optoTDP43 inclusions, EGFP-tagged TDP-43 was co-expressed with optoTDP43 or the Cry2 photoreceptor-only control. […] Human ReN neurons expressing TDP43-mCh or optoTDP43 were exposed to chronic blue light stimulation and viability was simultaneously monitored by longitudinal imaging.

HEK293 cells [5] = assay: Chronic blue light stimulation: optoTDP43 mislocalization and aggregation; format: cell-based
Description: as §2

HEK293 cells [6] = assay: Immunofluorescence analysis of pathological hallmarks of light-induced optoTDP43 aggregates; format: cell-based
Description: FIGS. 5A-5K show chronic blue light stimulation induces optoTDP43 mislocalization and aggregation that recapitulates pathological hallmarks seen in patient CNS tissue. HEK293 cells expressing optoTDP43-mCh were exposed to 488 nm LED stimulation or darkness for up to 36 hours. […] (FIG. 5E) Fluorescence recovery after photobleaching (FRAP) imaging was performed to assess dynamicity of optoTDP43 structures. […] (FIG. 5F) Detergent-solubility of optoTDP43 structures was assessed by subcellular fractionation to confirm aggregated state of light-induced optoTDP43 granules. […] In addition to increased insolubility of exogenous, full-length optoTDP43 (top band), chronic blue light exposure also results in recruitment of aberrant optoTDP43 cleavage products (middle bands), as well as endogenous full-length TDP-43 and disease-relevant cleavage products (bottom bands), to the detergent-insoluble, urea-soluble fraction of cell lysates as is observed in patient tissue. (FIG. 5G) To confirm direct recruitment of non-optogenetic TDP-43 species to exogenous light-induced optoTDP43 inclusions, EGFP-tagged TDP-43 was co-expressed with optoTDP43 or the Cry2 photoreceptor-only control. […] (FIG. 5H-5J) Immunofluorescence analysis was performed on light-induced optoTDP43 aggregates to confirm pathological hallmarks seen in patient tissue. optoTDP43 inclusions appear to be (FIG. 5H) ubiquitinated, (FIG. 5I) hyperphosphorylated, and (FIG. 5J) p62-positive, all of which have been observed with TDP-43 inclusions in patient CNS. (FIG. 5K) Automated high-throughput confocal microscopy was performed to assess the neurotoxicity of light-induced optoTDP43 inclusions. Human ReN neurons expressing TDP43-mCh or optoTDP43 were exposed to chronic blue light stimulation and viability was simultaneously monitored by longitudinal imaging.

EGFP-tagged TDP-43 = molecular target: T1, EGFP-tagged TDP-43 (Homo sapiens, UniProt Q13148); assay: Recruitment of co-expressed EGFP-tagged TDP-43 to light-induced inclusions (co-localization); format: cell-based; details: chronic blue light stimulation
T1 construct: expressed in transfected cells
Description: as §2

HEK293 cells [7] = assay: Detergent-solubility by subcellular fractionation; format: cell-based; details: with and without light treatment; chronic blue light stimulation
Description: as §2

[8] = cited from earlier work
[9] = molecular target: the molecule itself; assay: self-association in live cells on blue light, mCherry fluorescence

T1 sequence (Q13148 whole entry): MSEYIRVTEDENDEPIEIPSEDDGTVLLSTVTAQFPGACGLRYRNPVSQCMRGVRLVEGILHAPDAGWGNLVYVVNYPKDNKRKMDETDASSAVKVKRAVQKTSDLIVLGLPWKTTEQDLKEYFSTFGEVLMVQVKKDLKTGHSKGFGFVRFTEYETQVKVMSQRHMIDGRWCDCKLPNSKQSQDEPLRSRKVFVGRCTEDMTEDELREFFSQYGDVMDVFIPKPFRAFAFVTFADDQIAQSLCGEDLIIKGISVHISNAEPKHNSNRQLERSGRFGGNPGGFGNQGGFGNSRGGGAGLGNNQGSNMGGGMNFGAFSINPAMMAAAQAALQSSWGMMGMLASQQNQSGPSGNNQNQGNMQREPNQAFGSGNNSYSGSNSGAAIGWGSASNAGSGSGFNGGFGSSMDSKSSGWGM

TDP-43-CRY2OLIG-mCh: full length TDP-43, Cry2olig, mCherry reporter arrangement
ability to aggregate [1]: mislocalizes but does not exhibit the ability to aggregate

optoLCD: CRY2OLIG fused to just the low complexity domain of TDP-43 and mCherry
fluorescence recovery after photobleaching (FRAP) (HEK293 cells [2]): do not recover from FRAP | time to formation of pathological aggregates (HEK cells [3]; acute stimulation): ≤ 1 hour | toxicity of aggregates (HEK cells [3]; aggregates grow in size over time): become toxic over time | clustering / aggregation with blue light stimulation (reversibility) (live cells): forms irreversible aggregates | oligomerization after a brief pulse of blue light (HEK cells [4]): rapidly oligomerize | persistence of oligomers (HEK cells [4]): persist much longer than the Cry2 photoreceptor alone

optoRRM2+LCD: Optogenetic C-terminal fragment of TDP-43 containing RRM2 and the low-complexity domain
oligomerization after a brief pulse of blue light (HEK cells [4]): rapidly oligomerize | persistence of oligomers (HEK cells [4]): persist much longer than the Cry2 photoreceptor alone

optoTDP43: CRY2OLIG fused to the entire TDP-43 protein and mCherry
neuron survival / viability (Human ReN neurons): significantly decreased viability over time | localization (HEK293 cells [5]; 488 nm LED stimulation up to 36 hours, confirmed by nuclear/cytoplasmic fractionation): gradual cytoplasmic mislocalization | aggregation (HEK293 cells [5]; simultaneous chronic blue light exposure and high-throughput automated confocal microscopy): increases in propensity with increasing light exposure | p62 staining of inclusions (HEK293 cells [6]): p62-positive | phosphorylation of inclusions (HEK293 cells [6]): hyperphosphorylated | ubiquitination of inclusions (HEK293 cells [6]): ubiquitinated | fluorescence recovery after photobleaching (FRAP) (HEK293 cells [2]): Lack of fluorescence recovery | co-localization with EGFP-TDP43 (EGFP-tagged TDP-43): strong co-localization | clustering / aggregation with blue light stimulation (reversibility) (live cells): forms irreversible aggregates | detergent-solubility (HEK293 cells [7]): drastic shift to the insoluble fraction

B1: NcVVDY50W: NcVivid Y50W substitution (protein)
chain: HTLYAPGGYDIMGWLIQIMNRPNPQVELGPVDTSCALILCDLKQKDTPIVYASEAFLYMTGYSNAEVLGRNCRFLQSPDGMVKPKSTRKYVDSNTINTMRKAIDRNAEVQVEVVNFKKNGQRFVNFLTMIPVRDETGEYRYSMGFQCETE
dissipation from the dimerized state ([8]; Y50W change): slower ability to dissipate from the dimerized state

B2: CRY2OLIG-mCh (other)
chain: MKMDKKTIVWFRRDLRIEDNPALAAAAHEGSVFPVFIWCPEEEGQFYPGRASRWWMKQSLAHLSQSLKALGSDLTLIKTHNTISAILDCIRVTGATKVVFNHLYDPVSLVRDHTVKEKLVERGISVQSYNGDLLYEPWEIYCEKGKPFTSFNSYWKKCLDMSIESVMLPPPWRLMPITAAAEAIWACSIEELGLENEAEKPSNALLTRAWSPGWSNADKLLNEFIEKQLIDYAKNSKKVVGNSTSLLSPYLHFGEISVRHVFQCARMKQIIWARDKNSEGEESADLFLRGIGLREYSRYICFNFPFTHEQSLLSHLRFFPWDADVDKFKAWRQGRTGYPLVDAGMRELWATGWMHNRIRVIVSSFAVKFLLLPWKWGMKYFWDTLLDADLECDILGWQYISGSIPDGHELDRLDNPALQGAKYDPEGEYIRQWLPELARLPTEWIHHPWDAPLTVLKASGVELGTNYAKPIVDIDTARELLAKAISRTRGAQIMIGAA
notes: also called Cry2-mCh; Cry2 photoreceptor-only control; not shown: mCherry reporter and any linker
binding result [9]: binds

B3: Cry2-mCh: As a control, CRY2OLIG alone fused to mCherry (protein)
chain: B2 chain
modifications: left off: large carriers
notes: As a control, CRY2OLIG alone fused to mCherry
co-localization with EGFP-TDP43 (EGFP-tagged TDP-43): no co-localization | clustering / aggregation with blue light stimulation (reversibility) (live cells): reversibly clusters | disassembly (HEK cells [4]; after brief pulse of blue light): ~10 min

B4: CRY2OLIG: Cryptochrome 2 PHR Domain with E490G substitution (protein)
chain: B2 chain
efficiency of clustering upon blue light stimulation ([8]; E490G mutation versus endogenous sequence): slightly increased efficiency of clustering
